Reference: paper PMC6349869, “The palladacycle complex AJ-5 induces apoptotic cell death while reducing autophagic flux in rhabdomyosarcoma cells” (Cell Death Discovery, 2019)

What was measured:
[1] = tested on: SW1353, SW872, SW982, HT1080 and MG-63 cells; assay: Selectivity index of sarcoma subtype cell lines (MTT); format: cell-based, human; conditions: relative to the combined IC50 values for normal fibroblasts (FG0 and DMB); SW1353, SW872, SW982, HT1080, MG-63
Procedure: Cells were seeded in 96-well plates and treated the next day with a range of AJ-5 concentrations (0.1–1.0 μM) or vehicle ([…]) for 48 h. Cell viability was measured using the 3-(4,5-dimethylthiazol-2-yl)-2,5-diphenyl-trazolium bromide (MTT) assay (11465007001; Sigma Aldrich) according to the manufacturer’s instructions. Mean cell viability was calculated as a percentage of the mean vehicle control. At least three independent experiments in quadruplicate were performed from which the half maximal inhibitory concentration (IC50) was determined using GraphPad Prism version 6.0 (GraphPad Software, California, USA). The selectivity index (SI) was determined by dividing the IC50 of a normal cell line by the IC50 of a cancer cell line.
Fig. S2 AJ-5 is cytotoxic in a range of sarcoma subtypes. […] Graphs show mean cell viability as a percentage of vehicle control ± SEM for each concentration of AJ-5 determined from three independent experiments performed in quadruplicate. […] (B) Selectivity indices (SIs) were determined for each cell line by dividing the IC50 of each non-malignant cell line (Fig. 1C) including normal fibroblast cell lines (FG0 and DMB) and mesenchymal stem cell line (A10021501) by the IC50 of each sarcoma cell line. […] Colonies were stained with crystal violet and images from three independent repeats were quantified using the ImageJ plugin ColonyArea. […]

C2C12 cells = assay: Clonogenic assay, C2C12 myoblasts; format: cell-based, mouse; conditions: 24 h of 0.3 µM
Procedure: Cells were seeded in 6-well plates and treated the following day with IC50, ½ IC50, ¼ IC50 AJ-5 and vehicle. After 24 h, 800–4000 cells were seeded in 35 mm dishes in drug-free medium. Formation of colonies were monitored and after 7–21 days cells were fixed with 3:1 methanol:acetic acid and stained with 0.5% crystal violet (Sigma Aldrich) in 100% methanol. Colonies were imaged and percentage colony area was determined using ImageJ v1.50i[58] and the plugin ColonyArea[59]. Colony area was determined for each drug concentration and expressed as a percentage of vehicletreated control.

[2] = tested on: γH2AX, p-ATM, p-Chk2, p-p38, p21 in RH30 and RD cells; assay: Western blotting and immunocytochemistry of DNA damage and stress pathway proteins; format: cell-based, human
Procedure: Cells were lysed at 4 °C in whole-cell lysis buffer (0.125 M Tris-HCl pH 6.8, 4% SDS, 0.2% glycerol, 0.1% β-mercaptoethanol and a pinch of bromophenol blue) and boiled for 10 min. Proteins were resolved by SDS-PAGE (6–15% gels) and transferred to Hybond ECL membranes (Amersham, UK). The membranes were incubated with primary antibodies: rabbit polyclonal antibodies to phospho-histone H2A.X (Ser139) (#2577), phospho-chk2 (Thr68) (#221), phospho-p38 MAPK (Thr180/Tyr182) (#9211), cleaved caspase-3 (Asp175) (#9661), PARP (#9542), caspase-9 (#9502), LC3B (#2775), p38 MAPK (#9212), rabbit monoclonal antibody to cleaved caspase-7 (Asp198) (D6H1) (#8438), mouse monoclonal antibodies to phospho-ATM (Ser1981) (D6H9) (#5883), Cyclin B1 (V152) (#4135), Caspase-8 (1C12) (#9746), SQSTM1/p62 (D5L7G) (#88588) from Cell Signaling Technology (Massachusetts, USA); mouse monoclonal antibody to p53 (DO-1) (sc-126), rabbit polyclonal antibodies to p21 (C-19) (sc-397), cyclin A (H-432) (sc-751), cyclin B1 (H-433)(sc-752), PARP-1 (H-250) (sc-7150) from Santa Cruz Biotechnology (Texas, USA); rabbit polyclonal antibody to p38 MAP kinase (M0800) from Sigma Aldrich. After primary antibody incubation, membranes were incubated with goat anti-rabbit or goat anti-mouse HRP-conjugated secondary antibodies (Bio-Rad Laboratories, California, USA). Antibody reactive proteins were visualized by enhanced chemiluminescence using SuperSignal West Pico Chemiluminescent Substrate Kit (Thermo Fisher Scientific) or WesternBright ECL HRP Substrate Kit (Advansta, California, USA). Densitometry readings were obtained using ImageJ v1.50i[58] and protein expression levels were represented as a ratio of protein of interest/p38 loading control normalized to the vehicletreated control sample where appropriate. All blots are representative of at least two independent repeats.
Cells were plated on glass coverslips and treated with IC50 AJ-5 or vehicle. […] For quantification, mean fluorescence was measured from at least 20 fields of view per treatment condition and pooled from three independent repeats.

CC(C)c1cccc(C(C)C)c1[N+]1=Cc2cccc[c]2[Pd-2]1([Cl])[P+](CC[P+](c1ccccc1)(c1ccccc1)[Pd-2]1([Cl])[c]2ccccc2C=[N+]1c1c(C(C)C)cccc1C(C)C)(c1ccccc1)c1ccccc1 (centres unmarked) [AJ-5]
Selectivity index (SI) [1]: > 2 | Ability of C2C12 myoblasts to survive and proliferate (colony area) (C2C12 cells): not significantly hindered | γH2AX levels ([2]; 0.1 µM or IC50, 24 and 48 h, western blotting): dose-dependent increase | p21 levels ([2]; IC50 concentrations, pronounced after 24 h): increased | Levels of phosphorylated ATM, CHK2 and p38 ([2]; western blotting): increased levels
